# Test: Renal clearance study in unanesthetized dogs: effective renal plasma flow (PAH clearance) and glomerular filtration rate (creatinine clearance)
# Type: in vivo
# Conditions: alone
# Method: A modification of the renal function protocol, described in the prior art, was used for renal clearance studies in adult, trained, unanesthetized, fasted, female mongrel dogs, lightly restrained on their backs on a cradle-like board constructed specifically for this purpose. […] All dogs were given an oral water load of 500 ml of tap water thirty minutes prior to initiation of the study. […] Suitable plasma levels of creatinine and p-aminohippuric acid were obtained by a thirty minute infusion of this solution prior to starting of the initial urine collection (U₁) In addition, 1.5 ml/kg of a 1% creatinine solution in phosphate buffer was injected intravenously fifteen minutes prior to collection of U₁. Replicate urine collections were obtained at ten minute intervals throughout the experiment. The bladder was emptied by an indwelling catheter and complete urine collections were assured by rinsing the bladder with 10 mls of warm water at the end of each collection interval. This procedure was followed by an air washout. Venous blood samples were drawn from an indwelling catheter at the mid-point of each clearance period. Urine volumes were recorded at the time of collection. Plasma and urine samples were stored frozen, after collection, until analyzed. Analyses for creatinine and p-aminohippuric acid were made, by colorimetry, using standard AutoAnalyzer methodologies. These analyses were made simultaneously on each sample. Peak intensities were identified electronically, recorded on "on-line" teletype, stored and subsequently analyzed mathematically by time-shared computer against appropriate standards. Data were computed from linear least square regression lines, and quality control standards were analyzed simultaneously to evaluate system reproducibility and reliability. The bladder was emptied upon beginning the study and three control clearances (U₁-U₃, Phase 1) were obtained. […] Post-drug clearance C₄-C₆, C₇-C₉, C₁₀-C₁₂ (Phases II, III and IV) were collected immediately, with no delay between C₃ and C₄. […] Four dogs were used for each treatment. All compounds were weighed as free base content.
smiles,measurement,setting,value
"CS(=O)(=O)O.Oc1ccc(C2CNCCc3c2cc(O)c(O)c3Cl)cc1 (centres unmarked) [Fenoldopam, 6-Chloro-7,8-dihydroxy-1-(4-hydroxyphenyl)-2,3,4,5-tetrahydro-1H-3-benzazepine methyl sulfonate]",ERPF ( % from control),Fenoldopam 2.5 mg/kg orally,34 ± 5 % from control
same,GFR ( % from control),Fenoldopam 2.5 mg/kg orally,-2 ± 2 % from control
same,ERPF ( % from control),Fenoldopam 5.0 mg/kg orally,47 ± 16 % from control
same,GFR ( % from control),Fenoldopam 5.0 mg/kg orally,6 ± 5 % from control
same,ERPF ( % from control),Fenoldopam 10 mg/kg orally,30 ± 2 % from control
same,GFR ( % from control),Fenoldopam 10 mg/kg orally,-1 ± 2 % from control
same,ERPF ( % from control),Fenoldopam 20 mg/kg orally,44 ± 15 % from control
same,GFR ( % from control),Fenoldopam 20 mg/kg orally,1 ± 3 % from control

# From patent EP0365134A1, “Synergistic compositions of renal dopaminergic agent and angiotensin converting enzyme inhibitors” (priority 1988, dated 1990)
